Assay results: PubChem BioAssay AID1963963 (Molecular Pharmacology Branch, DTP, NCI, 2024)

Tested on: 958667-338-R-J2-PDC tumor spheroids viability
Assay: Anticancer human tumor 958667-338-R-J2-PDC patient-derived colon adenocarcinoma cell line growth inhibition [PI3K]
Settings: spheroids with HUVEC and MSC; for viability, T/C: stronger effect = lower value
Summary of the method: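 Spheroid viability read-out. Co-cultures contained the tumor line plus HUVEC and human MSCs. Each agent was paired with a PI3K inhibitor (inavolisib, alpelisib, duvelisib, copanlisib) across half-log dilutions starting at clinical Cmax, or at 10 microM when Cmax was unknown.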

[1] = curve of first compound, second compound 0.0316 µM
[2] = curve of first compound, second compound 0.1 µM
[3] = curve of first compound, second compound 0.316 µM
[4] = curve of first compound, second compound 1 µM
[5] = second compound 0.0316 µM, first compound 0.0316 µM
[6] = second compound 0.0316 µM, first compound 0.1 µM
[7] = second compound 0.0316 µM, first compound 0.316 µM
[8] = second compound 0.0316 µM, first compound 1 µM
[9] = second compound 0.0316 µM, first compound 3.16 µM
[10] = second compound 0.0316 µM, first compound 10 µM
[11] = second compound 0.1 µM, first compound 0.0316 µM
[12] = second compound 0.1 µM, first compound 0.1 µM
[13] = second compound 0.1 µM, first compound 0.316 µM
[14] = second compound 0.1 µM, first compound 1 µM
[15] = second compound 0.1 µM, first compound 3.16 µM
[16] = second compound 0.1 µM, first compound 10 µM
[17] = second compound 0.316 µM, first compound 0.0316 µM
[18] = second compound 0.316 µM, first compound 0.1 µM
[19] = second compound 0.316 µM, first compound 0.316 µM
[20] = second compound 0.316 µM, first compound 1 µM
[21] = second compound 0.316 µM, first compound 3.16 µM
[22] = second compound 0.316 µM, first compound 10 µM
[23] = second compound 1 µM, first compound 0.0316 µM
[24] = second compound 1 µM, first compound 0.1 µM
[25] = second compound 1 µM, first compound 0.316 µM
[26] = second compound 1 µM, first compound 1 µM
[27] = second compound 1 µM, first compound 3.16 µM
[28] = second compound 1 µM, first compound 10 µM
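Note: spheroids exposed to compounds for seven days before readout.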

## C[C@@H](NC(=O)c1ncnc(N)c1Cl)c1ncc(C(=O)Nc2cc(C(F)(F)F)c(Cl)cn2)s1 + CC(Nc1ccc2c(c1)OCCn1cc(N3C(=O)OCC3C(F)F)nc1-2)C(N)=O
Curve of first compound, second compound 0.00316 µM
  IC50: > 10 µM
Curve of first compound, second compound 0.01 µM
  IC50: > 10 µM
[1]
  IC50: > 10 µM
[2]
  IC50: > 10 µM
[3]
  IC50: > 10 µM
[4]
  IC50: > 10 µM
Second compound 0.00316 µM, first compound 0.0316 µM
  viability, T/C: 112%
Second compound 0.00316 µM, first compound 0.1 µM
  viability, T/C: 116%
Second compound 0.00316 µM, first compound 0.316 µM
  viability, T/C: 87.5%
Second compound 0.00316 µM, first compound 1 µM
  viability, T/C: 120%
Second compound 0.00316 µM, first compound 3.16 µM
  viability, T/C: 115%
Second compound 0.00316 µM, first compound 10 µM
  viability, T/C: 103%
Second compound 0.01 µM, first compound 0.0316 µM
  viability, T/C: 118%
Second compound 0.01 µM, first compound 0.1 µM
  viability, T/C: 131%
Second compound 0.01 µM, first compound 0.316 µM
  viability, T/C: 113%
Second compound 0.01 µM, first compound 1 µM
  viability, T/C: 111%
Second compound 0.01 µM, first compound 3.16 µM
  viability, T/C: 101%
Second compound 0.01 µM, first compound 10 µM
  viability, T/C: 102%
[5]
  viability, T/C: 90.4%
[6]
  viability, T/C: 97%
[7]
  viability, T/C: 92%
[8]
  viability, T/C: 96.1%
[9]
  viability, T/C: 101%
[10]
  viability, T/C: 108%
[11]
  viability, T/C: 88.5%
[12]
  viability, T/C: 97.4%
[13]
  viability, T/C: 93.9%
[14]
  viability, T/C: 94.2%
[15]
  viability, T/C: 90.1%
[16]
  viability, T/C: 76.2%
[17]
  viability, T/C: 67.7%
[18]
  viability, T/C: 72.4%
[19]
  viability, T/C: 95.1%
[20]
  viability, T/C: 80.8%
[21]
  viability, T/C: 77.8%
[22]
  viability, T/C: 80%
[23]
  viability, T/C: 61.2%
[24]
  viability, T/C: 59.8%
[25]
  viability, T/C: 59.3%
[26]
  viability, T/C: 64.3%
[27]
  viability, T/C: 75.5%
[28]
  viability, T/C: 58.9%

## CNC(=O)c1ccc(N2C(=S)N(c3ccc(C#N)c(C(F)(F)F)c3)C(=O)C2(C)C)cc1F + Cc1nc(NC(=O)N2CCCC2C(N)=O)sc1-c1ccnc(C(C)(C)C(F)(F)F)c1
[1]
  IC50: > 10 µM
[2]
  IC50: > 10 µM
[3]
  IC50: > 10 µM
[4]
  IC50: > 10 µM
Curve of first compound, second compound 3.16 µM
  IC50: > 10 µM
Curve of first compound, second compound 10 µM
  IC50: > 10 µM
[5]
  viability, T/C: 109%
[6]
  viability, T/C: 94.6%
[7]
  viability, T/C: 93.8%
[8]
  viability, T/C: 131%
[9]
  viability, T/C: 101%
[10]
  viability, T/C: 90.5%
[11]
  viability, T/C: 105%
[12]
  viability, T/C: 112%
[13]
  viability, T/C: 103%
[14]
  viability, T/C: 91.9%
[15]
  viability, T/C: 134%
[16]
  viability, T/C: 93.2%
[17]
  viability, T/C: 78.9%
[18]
  viability, T/C: 102%
[19]
  viability, T/C: 93.2%
[20]
  viability, T/C: 76.4%
[21]
  viability, T/C: 98%
[22]
  viability, T/C: 93.6%
[23]
  viability, T/C: 74.5%
[24]
  viability, T/C: 71.2%
[25]
  viability, T/C: 88%
[26]
  viability, T/C: 70.8%
[27]
  viability, T/C: 97.7%
[28]
  viability, T/C: 82.4%
Second compound 3.16 µM, first compound 0.0316 µM
  viability, T/C: 76.9%
Second compound 3.16 µM, first compound 0.1 µM
  viability, T/C: 69%
Second compound 3.16 µM, first compound 0.316 µM
  viability, T/C: 64.3%
Second compound 3.16 µM, first compound 1 µM
  viability, T/C: 78.5%
Second compound 3.16 µM, first compound 3.16 µM
  viability, T/C: 72.3%
Second compound 3.16 µM, first compound 10 µM
  viability, T/C: 65.2%
Second compound 10 µM, first compound 0.0316 µM
  viability, T/C: 65.2%
Second compound 10 µM, first compound 0.1 µM
  viability, T/C: 67.3%
Second compound 10 µM, first compound 0.316 µM
  viability, T/C: 58.6%
Second compound 10 µM, first compound 1 µM
  viability, T/C: 62.1%
Second compound 10 µM, first compound 3.16 µM
  viability, T/C: 60.9%
Second compound 10 µM, first compound 10 µM
  viability, T/C: 46.9%

## C[C@@H](NC(=O)c1ncnc(N)c1Cl)c1ncc(C(=O)Nc2cc(C(F)(F)F)c(Cl)cn2)s1
Compound 0.0316 µM
  viability, T/C: 104% [middle of 4 runs]
Compound 0.1 µM
  viability, T/C: 103% [middle of 4 runs]
Compound 0.316 µM
  viability, T/C: 106% [middle of 4 runs]
Compound 3.16 µM
  viability, T/C: 95.3% [middle of 4 runs]
Compound 10 µM
  viability, T/C: 98.6% [middle of 4 runs]
Curve of compound
  IC50: > 10 µM
